Reference: patent publication US20250281465A1, “MOLECULES THAT ENHANCE EXTRACELLULAR VESICLE RELEASE” (priority 2022, published 2025)
Entries after “also recorded” stand apart in the source; their conditions may differ.

Tests used:
mBMDCs [1] = test: Intracellular Ca2+ influx (Fura-2/Fura-8) in mBMDCs; format: cell-based, mouse; details: for intracellular Ca^2+ influx in mBMDCs (Fura-8): 2 and 10 μM, 25 minutes
mBMDCs [2] = test: EV release from mBMDCs (differential ultracentrifugation, MRPS); details: for number of EV particles released in the culture supernatant: 46-48 h, vs Veh
THP-1 cells = test: Intracellular Ca2+ influx screening (Fura-2) in THP-1 cells; format: cell-based, human
Experimental: (§1) FIGS. 1A-1D. Intracellular Ca^2+ influx screening of 84 HTS hit candidate compounds. (A) THP-1 cells were loaded with the ratiometric Ca^2+ indicator, Fura-2, and treated with lonomycin (ION, 1 μM), Thapsigargin (1 μM), or 84 hit candidate compounds (10 μM) for 25 minutes. Data are presented as the area under the curve (AUG) of OD340/380 ratios corresponding to the intracellular Ca^2+ kinetics. The baseline-subtracted AUG was calculated using GraphPad Prism (GraphPad Software, San Diego, CA). (B) Ca^2+ mobilization by compound #634. mBMDCs were loaded with the ratiometric Ca^2+ indicator, Fura-8, and treated with ION (1 μM), or #634 (2 and 10 μM) for 25 minutes. The dashed line indicates the timing of compounds added. The data shown are representative of three independent experiments showing similar results. (C) Ca^2+ add-back assay. Fura-8-loaded mBMDC were treated with ION (1 μM), or compound #634 (2 μM, 10 μM) for 15 minutes in the absence of extracellular Ca^2+, and then Ca^2+ (final 1.8 mM) was added at 15 minutes. Data shown are representative of three independent experiments showing similar results. (D) C57BL/6 mice (n=5/group) were intramuscularly immunized with ovalbumin (OVA, 20 μg/mouse) adjuvanted with compound #634 (200 nmol/mouse), or Veh (10% DMSO) on days 0 and 21 and bled on day 28. OVA-specific IgGI and IgG2c levels in sera were determined by ELISA. **p<0.01, ***p<0.001, ns (not significant) by KruskalWallis tests with Dunn's post hoc test vs. Veh.
FIGS. 18A-18C. Compound 634 induces intracellular Ca^2+ levels in mBMDCs. […] The time-response pattern of intracellular Ca^2+ levels was recorded for 25 minutes. AUC of OD340/380 ratios corresponds to the intracellular Ca^2+ kinetics, and the baseline-subtracted AUC was calculated by GraphPad Prism. […]
FIGS. 24A-24B. […] The time-response pattern of intracellular Ca^2+ levels was recorded with a plate reader for 25 minutes. (A) The AUC of OD340/380 ratios corresponds to the intracellular Ca^2+ kinetics and the baseline-subtracted AUC was calculated by GraphPad Prism (FIG. 36). […]

mBMDC = test: Ca2+ add-back assay in mBMDC; format: cell-based, mouse; details: for intracellular Ca^2+ after adding Ca^2+ in the medium: Ca^2+ 1.8 mM added at 15 minutes; for intracellular Ca^2+ level without extracellular Ca^2+: Fura-8-loaded mBMDC, 2 μM, 10 μM, 15 minutes, absence of extracellular Ca^2+
Experimental: as §1
FIGS. 18A-18C. Compound 634 induces intracellular Ca^2+ levels in mBMDCs. (A) Intracellular Ca^2+ influx levels of the top eight compounds. THP-1 cells were loaded with the ratiometric Ca^2+ indicator, Fura-2, and treated with ION (1 μM), TG (1 μM), or test compounds (5 μM). The time-response pattern of intracellular Ca^2+ levels was recorded for 25 minutes. AUC of OD340/380 ratios corresponds to the intracellular Ca^2+ kinetics, and the baseline-subtracted AUC was calculated by GraphPad Prism. […] (B) Ca^2+ mobilization by compounds 456 and 634 in mBMDCs. mBMDCs were loaded with Fura-8 and treated with ION (1 μM), or 634 and 456 (10 μM) for 25 minutes. The dashed line indicates the timing of compounds added. The data shown are representative of three independent experiments showing similar results. (C) Ca^2+ add-back assay. Fura-8-loaded mBMDC were treated with ION (1 μM) or compound 634 (2 μM, 10 μM) for 15 minutes in the absence of extracellular Ca^2+, and then Ca^2+ (final 1.8 mM) was added at 15 minutes. The data shown are representative of three independent experiments showing similar results.

Compound | intracellular Ca^2+ influx by 634 and its SAR analogs (Fura-2) (mBMDCs [1]; 10 μM, vs Veh 0.5% DMSO / #634) | intracellular Ca^2+ influx in mBMDCs (Fura-8) (mBMDCs [1]) | number of EV particles released in the culture supernatant (mBMDCs [2]; 10 μM) | increase of the number of EVs released compared to Veh control (mBMDCs [2]; 634 10 μM, 48 hours, p<0.05) | intracellular Ca^2+ (relative AUC of OD340/380) (THP-1 cells; validation assay, 5 μM, vs Veh 0.5% DMSO) | intracellular Ca^2+ after adding Ca^2+ in the medium (mBMDC) | intracellular Ca^2+ level without extracellular Ca^2+ (mBMDC) | time intracellular Ca^2+ increase was sustained (mBMDCs [1]; Fura-8 assay) | release of particles of diameter less than 150 nm (mBMDCs [2]; 10 μM) | intracellular Ca^2+ increase (Fura-2 assay) (THP-1 cells; hit candidate compounds 10 μM, 25 minutes, vs vehicle control (DMSO))
CCOC(=O)c1c(NS(=O)(=O)c2cccc3nsnc23)sc(C)c1C [compound 634, Ethyl 2-(benzo[c][1,2,5]thiadiazole-4-sulfonamido)-4,5-dimethylthiophene-3-carboxylate] | Ca^2+ influx positive | induced Ca^2+ influx in mBMDCs; also recorded: comparable to ionomycin | significantly increased the number of EVs released | 45% | significantly increased intracellular Ca^2+ | intracellular Ca^2+ levels were restored | did not change the intracellular Ca^2+ concentration |  |  | 
CCOC(=O)c1c(NS(=O)(=O)c2cccc3c2N=S=N3)sc(C)c1C [#634, ethyl 2-(benzo[c][1,2,5]thiadiazole-4-sulfonamido)-4,5-dimethylthiophene-3-carboxylate] |  | rapidly increased intracellular Ca^2+ | increased the number of EV particles released |  |  | intracellular Ca^2+ influx was restored | did not increase intracellular Ca^2+ levels without extracellular Ca^2+ | at least 25 min | significantly enhanced | higher intracellular Ca^2+ increase than vehicle control
